Tested on: PABPC1 PABC
Type: binding, human
Settings: DMS-BM library, bait PABPC1 PABC, row aa = residue at this position; for DMS-derived PSSM value, position S15 / DMS-derived PSSM value (averaged), position S13 / DMS-derived PSSM value, position S13 / DMS-derived PSSM value, position S2: S = wild type; for DMS-derived PSSM value, position L2 / DMS-derived PSSM value, position L4: L = wild type
[1] = prey ATXN2, peptide TLNPNAKEFNPRSFSQ
[2] = prey ATXN2, peptide TLNPNAKEFNPRSFSQ, P = wild type
[3] = prey ATXN2, peptide KSTLNPNAKEFNPRSF, P = wild type
[4] = prey ATXN2, TLNPNAKEFNPRSF(averaged) over the two overlapping peptides, T = wild type
[5] = prey ATXN2, peptide KSTLNPNAKEFNPRSF, K = wild type
[6] = prey ATXN2, peptide KSTLNPNAKEFNPRSF, F = wild type
[7] = prey ATXN2, TLNPNAKEFNPRSF(averaged) over the two overlapping peptides, N = wild type
[8] = prey ATXN2, peptide TLNPNAKEFNPRSFSQ, T = wild type
[9] = prey ATXN2, TLNPNAKEFNPRSF(averaged) over the two overlapping peptides, P = wild type
[10] = prey ATXN2, TLNPNAKEFNPRSF(averaged) over the two overlapping peptides
[11] = prey ATXN2, peptide KSTLNPNAKEFNPRSF, E = wild type
[12] = prey ATXN2, TLNPNAKEFNPRSF(averaged) over the two overlapping peptides, A = wild type
[13] = prey ATXN2, peptide KSTLNPNAKEFNPRSF
[14] = prey ATXN2, peptide KSTLNPNAKEFNPRSF, A = wild type
[15] = prey ATXN2, peptide TLNPNAKEFNPRSFSQ, N = wild type
[16] = prey ATXN2, peptide TLNPNAKEFNPRSFSQ, F = wild type
[17] = prey ATXN2, peptide TLNPNAKEFNPRSFSQ, E = wild type

TLNPNAKEFNPRSFSQ S15V (TLNPNAKEFNPRSFVQ)
DMS-derived PSSM value, position S15 [1]: 0.009732

KSTLNPNAKEFNPRSF T3H (KSHLNPNAKEFNPRSF)
DMS-derived PSSM value, position T3 (prey ATXN2, peptide KSTLNPNAKEFNPRSF, T = wild type): 0.01262

TLNPNAKEFNPRSFSQ P4A (TLNANAKEFNPRSFSQ)
DMS-derived PSSM value, position P4 [2]: 0.02051

KSTLNPNAKEFNPRSF P13W (KSTLNPNAKEFNWRSF)
DMS-derived PSSM value, position P13 [3]: 0.01574

TLNPNAKEFNPRSF(averaged) T1I (ILNPNAKEFNPRSF)
DMS-derived PSSM value (averaged), position T1 [4]: 0.08555

KSTLNPNAKEFNPRSF K9W (KSTLNPNAWEFNPRSF)
DMS-derived PSSM value, position K9 [5]: 0.002107

KSTLNPNAKEFNPRSF F16R (KSTLNPNAKEFNPRSR)
DMS-derived PSSM value, position F16 [6]: 0

TLNPNAKEFNPRSFSQ P4F (TLNFNAKEFNPRSFSQ)
DMS-derived PSSM value, position P4 [2]: 0.01173

TLNPNAKEFNPRSF(averaged) K7W (TLNPNAWEFNPRSF)
DMS-derived PSSM value (averaged), position K7 (prey ATXN2, TLNPNAKEFNPRSF(averaged) over the two overlapping peptides, K = wild type): 0.01767

TLNPNAKEFNPRSF(averaged) N10E (TLNPNAKEFEPRSF)
DMS-derived PSSM value (averaged), position N10 [7]: 0.03135

TLNPNAKEFNPRSFSQ T1G (GLNPNAKEFNPRSFSQ)
DMS-derived PSSM value, position T1 [8]: 0.1015

TLNPNAKEFNPRSF(averaged) P11N (TLNPNAKEFNNRSF)
DMS-derived PSSM value (averaged), position P11 [9]: 0.02352

TLNPNAKEFNPRSF(averaged) N10M (TLNPNAKEFMPRSF)
DMS-derived PSSM value (averaged), position N10 [7]: 0.09167

TLNPNAKEFNPRSF(averaged) S13K (TLNPNAKEFNPRKF)
DMS-derived PSSM value (averaged), position S13 [10]: 0.003966

KSTLNPNAKEFNPRSF N12A (KSTLNPNAKEFAPRSF)
DMS-derived PSSM value, position N12 (prey ATXN2, peptide KSTLNPNAKEFNPRSF, N = wild type): 0.1266

KSTLNPNAKEFNPRSF E10T (KSTLNPNAKTFNPRSF)
DMS-derived PSSM value, position E10 [11]: 0.1693

TLNPNAKEFNPRSF(averaged) A6R (TLNPNRKEFNPRSF)
DMS-derived PSSM value (averaged), position A6 [12]: 0

TLNPNAKEFNPRSF(averaged) T1P (PLNPNAKEFNPRSF)
DMS-derived PSSM value (averaged), position T1 [4]: 0.02725

TLNPNAKEFNPRSFSQ L2D (TDNPNAKEFNPRSFSQ)
DMS-derived PSSM value, position L2 [1]: 0

TLNPNAKEFNPRSF(averaged) N3Y (TLYPNAKEFNPRSF)
DMS-derived PSSM value (averaged), position N3 [7]: 0.00806

TLNPNAKEFNPRSF(averaged) F14K (TLNPNAKEFNPRSK)
DMS-derived PSSM value (averaged), position F14 (prey ATXN2, TLNPNAKEFNPRSF(averaged) over the two overlapping peptides, F = wild type): 0.01179

KSTLNPNAKEFNPRSF L4D (KSTDNPNAKEFNPRSF)
DMS-derived PSSM value, position L4 [13]: 0

KSTLNPNAKEFNPRSF P13S (KSTLNPNAKEFNSRSF)
DMS-derived PSSM value, position P13 [3]: 0.02375

KSTLNPNAKEFNPRSF A8D (KSTLNPNDKEFNPRSF)
DMS-derived PSSM value, position A8 [14]: 0

TLNPNAKEFNPRSFSQ T1Y (YLNPNAKEFNPRSFSQ)
DMS-derived PSSM value, position T1 [8]: 0.3306

KSTLNPNAKEFNPRSF A8Y (KSTLNPNYKEFNPRSF)
DMS-derived PSSM value, position A8 [14]: 0

TLNPNAKEFNPRSFSQ N3E (TLEPNAKEFNPRSFSQ)
DMS-derived PSSM value, position N3 [15]: 0

TLNPNAKEFNPRSF(averaged) S13H (TLNPNAKEFNPRHF)
DMS-derived PSSM value (averaged), position S13 [10]: 0.06517

TLNPNAKEFNPRSFSQ A6N (TLNPNNKEFNPRSFSQ)
DMS-derived PSSM value, position A6 (prey ATXN2, peptide TLNPNAKEFNPRSFSQ, A = wild type): 0

TLNPNAKEFNPRSFSQ T1W (WLNPNAKEFNPRSFSQ)
DMS-derived PSSM value, position T1 [8]: 0.001527

TLNPNAKEFNPRSF(averaged) R12E (TLNPNAKEFNPESF)
DMS-derived PSSM value (averaged), position R12 (prey ATXN2, TLNPNAKEFNPRSF(averaged) over the two overlapping peptides, R = wild type): 0.01393

TLNPNAKEFNPRSFSQ N3Y (TLYPNAKEFNPRSFSQ)
DMS-derived PSSM value, position N3 [15]: 0

TLNPNAKEFNPRSFSQ S15N (TLNPNAKEFNPRSFNQ)
DMS-derived PSSM value, position S15 [1]: 0.007151

TLNPNAKEFNPRSF(averaged) A6G (TLNPNGKEFNPRSF)
DMS-derived PSSM value (averaged), position A6 [12]: 0

KSTLNPNAKEFNPRSF F16N (KSTLNPNAKEFNPRSN)
DMS-derived PSSM value, position F16 [6]: 0.04727

TLNPNAKEFNPRSFSQ L2K (TKNPNAKEFNPRSFSQ)
DMS-derived PSSM value, position L2 [1]: 0.001564

TLNPNAKEFNPRSF(averaged) T1G (GLNPNAKEFNPRSF)
DMS-derived PSSM value (averaged), position T1 [4]: 0.09

TLNPNAKEFNPRSFSQ F9A (TLNPNAKEANPRSFSQ)
DMS-derived PSSM value, position F9 [16]: 0

TLNPNAKEFNPRSFSQ E8S (TLNPNAKSFNPRSFSQ)
DMS-derived PSSM value, position E8 [17]: 0.09805

TLNPNAKEFNPRSF(averaged) P11V (TLNPNAKEFNVRSF)
DMS-derived PSSM value (averaged), position P11 [9]: 0.44

TLNPNAKEFNPRSF(averaged) A6M (TLNPNMKEFNPRSF)
DMS-derived PSSM value (averaged), position A6 [12]: 0

KSTLNPNAKEFNPRSF P6T (KSTLNTNAKEFNPRSF)
DMS-derived PSSM value, position P6 [3]: 0.001755

TLNPNAKEFNPRSFSQ P4T (TLNTNAKEFNPRSFSQ)
DMS-derived PSSM value, position P4 [2]: 0.02934

KSTLNPNAKEFNPRSF F16Y (KSTLNPNAKEFNPRSY)
DMS-derived PSSM value, position F16 [6]: 0.101

KSTLNPNAKEFNPRSF L4W (KSTWNPNAKEFNPRSF)
DMS-derived PSSM value, position L4 [13]: 0

KSTLNPNAKEFNPRSF E10Q (KSTLNPNAKQFNPRSF)
DMS-derived PSSM value, position E10 [11]: 0

TLNPNAKEFNPRSFSQ N10R (TLNPNAKEFRPRSFSQ)
DMS-derived PSSM value, position N10 [15]: 0.03785

TLNPNAKEFNPRSFSQ R12K (TLNPNAKEFNPKSFSQ)
DMS-derived PSSM value, position R12 (prey ATXN2, peptide TLNPNAKEFNPRSFSQ, R = wild type): 0.01776

TLNPNAKEFNPRSF(averaged) P11Y (TLNPNAKEFNYRSF)
DMS-derived PSSM value (averaged), position P11 [9]: 0.02499

TLNPNAKEFNPRSF(averaged) S13T (TLNPNAKEFNPRTF)
DMS-derived PSSM value (averaged), position S13 [10]: 0.05607

TLNPNAKEFNPRSFSQ S13Y (TLNPNAKEFNPRYFSQ)
DMS-derived PSSM value, position S13 [1]: 0.04643

TLNPNAKEFNPRSF(averaged) E8L (TLNPNAKLFNPRSF)
DMS-derived PSSM value (averaged), position E8 (prey ATXN2, TLNPNAKEFNPRSF(averaged) over the two overlapping peptides, E = wild type): 0

KSTLNPNAKEFNPRSF S2W (KWTLNPNAKEFNPRSF)
DMS-derived PSSM value, position S2 [13]: 0.0005784

KSTLNPNAKEFNPRSF K9S (KSTLNPNASEFNPRSF)
DMS-derived PSSM value, position K9 [5]: 0.05789

KSTLNPNAKEFNPRSF A8H (KSTLNPNHKEFNPRSF)
DMS-derived PSSM value, position A8 [14]: 0

TLNPNAKEFNPRSFSQ P11A (TLNPNAKEFNARSFSQ)
DMS-derived PSSM value, position P11 [2]: 0.0003099

KSTLNPNAKEFNPRSF S2P (KPTLNPNAKEFNPRSF)
DMS-derived PSSM value, position S2 [13]: 0.1938

TLNPNAKEFNPRSFSQ S15D (TLNPNAKEFNPRSFDQ)
DMS-derived PSSM value, position S15 [1]: 0.0138

TLNPNAKEFNPRSF(averaged) A6Q (TLNPNQKEFNPRSF)
DMS-derived PSSM value (averaged), position A6 [12]: 0

TLNPNAKEFNPRSFSQ F14P (TLNPNAKEFNPRSPSQ)
DMS-derived PSSM value, position F14 [16]: 0.06984

KSTLNPNAKEFNPRSF F16H (KSTLNPNAKEFNPRSH)
DMS-derived PSSM value, position F16 [6]: 0.03107

TLNPNAKEFNPRSF(averaged) N10V (TLNPNAKEFVPRSF)
DMS-derived PSSM value (averaged), position N10 [7]: 0.105

TLNPNAKEFNPRSFSQ E8K (TLNPNAKKFNPRSFSQ)
DMS-derived PSSM value, position E8 [17]: 0

TLNPNAKEFNPRSFSQ K7N (TLNPNANEFNPRSFSQ)
DMS-derived PSSM value, position K7 (prey ATXN2, peptide TLNPNAKEFNPRSFSQ, K = wild type): 0.08014

TLNPNAKEFNPRSFSQ S13D (TLNPNAKEFNPRDFSQ)
DMS-derived PSSM value, position S13 [1]: 0.05929

Reference: paper PMC12102759 (Protein Science : A Publication of the Protein Society, 2025)
